Active and inactive are the calls of the source.
Tests used:
[1] = Selectivity ratio of IC50 for human COX1 to IC50 for human COX2 expressed in baculovirus-infected SF9 cells
[2] = molecular target: T1, Prostaglandin G/H synthase 2 (Homo sapiens, UniProt P35354); experiment: biochemical; assay type: cell-based, Sf9
T1 sequence (P35354 whole entry): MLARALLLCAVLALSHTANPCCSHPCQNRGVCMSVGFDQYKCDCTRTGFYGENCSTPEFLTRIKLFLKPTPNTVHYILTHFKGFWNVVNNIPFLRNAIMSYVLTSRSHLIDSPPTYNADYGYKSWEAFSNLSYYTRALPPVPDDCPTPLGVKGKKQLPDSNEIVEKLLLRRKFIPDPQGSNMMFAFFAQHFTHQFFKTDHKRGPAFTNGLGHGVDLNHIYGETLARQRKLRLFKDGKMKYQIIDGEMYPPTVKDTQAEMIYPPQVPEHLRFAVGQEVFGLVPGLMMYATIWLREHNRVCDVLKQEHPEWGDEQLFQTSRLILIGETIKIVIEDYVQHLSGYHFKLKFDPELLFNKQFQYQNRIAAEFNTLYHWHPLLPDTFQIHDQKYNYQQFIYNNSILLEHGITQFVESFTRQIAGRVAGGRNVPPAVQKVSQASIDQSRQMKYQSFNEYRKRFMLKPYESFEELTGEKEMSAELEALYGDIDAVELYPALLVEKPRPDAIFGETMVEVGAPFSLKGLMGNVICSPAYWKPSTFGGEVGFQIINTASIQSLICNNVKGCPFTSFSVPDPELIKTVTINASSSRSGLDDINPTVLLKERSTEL

[3] = molecular target: T2, Prostaglandin G/H synthase 1 (Homo sapiens, UniProt P23219); experiment: biochemical; assay type: cell-based, Sf9
COS = experiment: Selectivity ratio of IC50 for human COX1 to IC50 for human COX2 expressed in african green monkey COS cells; assay type: cell-based
[4] = molecular target: T2, Prostaglandin G/H synthase 1; experiment: biochemical; assay type: cell-based, COS
[5] = molecular target: T1, Prostaglandin G/H synthase 2; assay type: cell-based, COS
[6] = molecular target: T1, Prostaglandin G/H synthase 2; assay type: tissue-based, Blood
Description: Inhibition of COX2 in human whole blood assessed as inhibition of lipopolysaccharide-stimulated PGE2 production after 24 hrs by enzyme immunoassay

[7] = molecular target: T2, Prostaglandin G/H synthase 1; assay type: tissue-based, Blood
Homo sapiens = species on record: Homo sapiens; experiment: Selectivity ratio of IC50 for COX1 to IC50 for COX2 in human whole blood; assay type: tissue-based
Rattus norvegicus [8] = experiment: Antihyperalgesic activity against chronic constriction nerve injury-induced hyperalgesia in rat assessed as reversal of decrease in the paw withdrawal threshold at 5 mg/kg, po bid for 10 days measured on day 3 postdose; assay type: functional, organism-based; parameters: dose 5 mg/kg
[9] = Terminal half life in rat at 1 mg/kg/hr, iv; assay type: ADME, organism-based; parameters: route intravenous; conditions: in vivo, read-out: beta t1/2 (converted)
in vivo = conditions: rat, brain / blood
Description: Ratio of drug level in brain to blood in rat

[10] = Volume of distribution at steady state in rat at 1 mg/kg/hr, iv; assay type: ADME, organism-based; parameters: route intravenous; conditions: in vivo, read-out: Vdss
[11] = Oral bioavailability in rat at 1 mg/kg; assay type: ADME, organism-based; conditions: in vivo
Rattus norvegicus [12] = experiment: Antihyperalgesic activity against chronic constriction nerve injury-induced hyperalgesia in rat assessed as reversal of decrease in the paw withdrawal threshold at 5 mg/kg, po bid for 10 days measured on day 7 postdose; assay type: functional, organism-based; parameters: dose 5 mg/kg
Rattus norvegicus [13] = experiment: Antihyperalgesic activity against chronic constriction nerve injury-induced hyperalgesia in rat assessed as reversal of decrease in the paw withdrawal threshold at 5 mg/kg, po bid for 10 days measured on day 10 postdose; assay type: functional, organism-based; parameters: dose 5 mg/kg
[14] = Blood clearance in rat at 1 mg/kg/hr, iv; assay type: ADME, organism-based; parameters: route intravenous; conditions: whole blood
Rattus norvegicus [15] = species on record: Rattus norvegicus; experiment: Analgesic activity against Freund's adjuvant-induced pain in rat model of acute inflammatory pain assessed as reversal of adjuvant hypersensitivity; assay type: functional
[16] = Oral bioavailability in rat at 5 mg/kg; assay type: ADME, organism-based; conditions: in vivo

T2 sequence (P23219 whole entry): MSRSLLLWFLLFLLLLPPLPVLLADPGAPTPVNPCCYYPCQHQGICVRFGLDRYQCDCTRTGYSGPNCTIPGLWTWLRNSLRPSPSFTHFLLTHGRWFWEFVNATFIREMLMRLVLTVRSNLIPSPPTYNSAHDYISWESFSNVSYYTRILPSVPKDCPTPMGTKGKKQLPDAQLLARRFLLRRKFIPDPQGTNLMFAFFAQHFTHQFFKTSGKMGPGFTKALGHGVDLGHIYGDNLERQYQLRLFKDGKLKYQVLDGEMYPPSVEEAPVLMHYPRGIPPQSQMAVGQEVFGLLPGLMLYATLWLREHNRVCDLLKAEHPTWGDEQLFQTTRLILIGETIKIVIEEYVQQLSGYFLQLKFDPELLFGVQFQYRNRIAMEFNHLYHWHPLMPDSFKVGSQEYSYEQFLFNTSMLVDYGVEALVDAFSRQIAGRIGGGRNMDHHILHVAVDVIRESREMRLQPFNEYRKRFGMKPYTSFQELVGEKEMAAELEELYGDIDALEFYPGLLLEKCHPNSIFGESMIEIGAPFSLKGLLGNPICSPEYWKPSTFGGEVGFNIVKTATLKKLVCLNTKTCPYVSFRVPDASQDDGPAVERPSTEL

Compound	IC50 [4]	IC50 [5]	Ratio IC50 (COS)	further results
CC(C)(C)Oc1nc(-c2ccc(S(C)(=O)=O)cc2)cc(C(F)(F)F)n1	–	–	–	Ratio IC50 [1]: 1580; IC50 [2]: 0.033 µM; IC50 [3]: 52 µM
CS(=O)(=O)c1ccc(-c2cc(N)nc(NC3CCCCC3)n2)cc1	> 100 µM	> 10 µM	inactive	–
CS(=O)(=O)c1ccc(-c2cc(C(F)(F)F)nc(NCC3CCCCC3)n2)cc1	> 100 µM	0.029 µM	> 3450	–
Cc1cccc(Oc2nc(-c3ccc(S(C)(=O)=O)cc3)cc(C(F)(F)F)n2)c1	–	–	–	Ratio IC50 [1]: > 436; IC50 [2]: < 0.01 µM; IC50 [3]: 4.36 µM
CS(=O)(=O)c1ccc(-c2cc(C(F)(F)F)nc(OCC3CCCCC3)n2)cc1	–	–	–	Ratio IC50 [1]: > 2220; IC50 [2]: 0.045 µM; IC50 [3]: > 100 µM
CC(C)Oc1nc(-c2ccc(S(C)(=O)=O)cc2)cc(C(F)(F)F)n1	–	–	–	Ratio IC50 [1]: 834; IC50 [2]: 0.063 µM; IC50 [3]: 52.6 µM
CCCCNc1nc(-c2ccc(S(C)(=O)=O)cc2)cc(C(F)(F)F)n1	> 100 µM	0.0013 µM	> 76900	IC50 [6]: 0.07 µM; IC50 [7]: > 96.2 µM; Ratio IC50 (Homo sapiens): > 1370
CS(=O)(=O)c1ccc(-c2cc(C(F)(F)F)nc(NC3CCCCC3)n2)cc1	> 58.4 µM	–	> 117000	IC50 [6]: 0.062 µM; IC50 [7]: 11.6 µM; Ratio IC50 (Homo sapiens): 187
Cc1cc(-c2ccc(S(C)(=O)=O)cc2)nc(NC2CCCCC2)n1	> 100 µM	1.68 µM	> 59	–
CCCCOc1nc(-c2ccc(S(C)(=O)=O)cc2)cc(C(F)(F)F)n1	–	–	–	IC50 [6]: 0.158 µM; Activity (Rattus norvegicus [8]): Active; half-life [9]: 4.2 h; Kp (in vivo): 3.2; Vd [10]: 5.7 L/kg; bioavailability [11]: 84%; Activity (Rattus norvegicus [12]): Active; Activity (Rattus norvegicus [13]): Active; clearance [14]: 1.44 L/h/kg; IC50 [2]: 0.0215 µM; ED50 (Rattus norvegicus [15]): 2.1 mg/kg
CS(=O)(=O)c1ccc(-c2cc(C(F)(F)F)nc(OC3CCCCCCC3)n2)cc1	–	–	–	Ratio IC50 [1]: > 300; IC50 [2]: < 0.01 µM; IC50 [3]: 3 µM
CS(=O)(=O)c1ccc(-c2ccnc(NC3CCCCC3)n2)cc1	> 100 µM	> 10 µM	inactive	–
Cc1ccc(-c2ncc(Cl)cc2-c2ccc(S(C)(=O)=O)cc2)cn1 [ETORICOXIB]	–	–	–	IC50 [7]: > 100 µM
CS(=O)(=O)c1ccc(-c2cc(OCC(F)(F)F)nc(NC3CCCCC3)n2)cc1	6.32 µM	0.016 µM	395	–
CS(=O)(=O)c1ccc(-c2cc(C(F)(F)F)nc(NCC3CCOCC3)n2)cc1	100 µM	0.005 µM	20000	–
CS(=O)(=O)c1ccc(-c2cc(C(F)(F)F)nc(OC3CCCC3)n2)cc1	–	–	–	Ratio IC50 [1]: > 404; IC50 [2]: < 0.01 µM; IC50 [3]: 4.04 µM
Cc1cnc(NC2CCCCC2)nc1-c1ccc(S(C)(=O)=O)cc1	> 100 µM	> 10 µM	inactive	–
Cc1c(-c2ccc(S(C)(=O)=O)cc2)nc(NC2CCCCC2)nc1C(F)(F)F	> 100 µM	> 10 µM	inactive	–
CS(=O)(=O)c1ccc(-c2cc(C(N)=O)nc(NC3CCCCC3)n2)cc1	> 100 µM	> 10 µM	inactive	–
CS(=O)(=O)c1ccc(C2=C(c3ccccc3)C(=O)OC2)cc1 [ROFECOXIB]	–	–	–	Kp (in vivo): 0.8
CS(=O)(=O)c1ccc(-c2cc(C(F)(F)F)nc(OCC3CCCCCC3)n2)cc1	–	–	–	Ratio IC50 [1]: inactive; IC50 [2]: 1.03 µM
CS(=O)(=O)c1ccc(-c2cc(C(=O)O)nc(NC3CCCCC3)n2)cc1	> 100 µM	> 10 µM	inactive	–
CS(=O)(=O)c1ccc(-c2cc(C(F)(F)F)nc(OC3CCCCCC3)n2)cc1	–	–	–	Ratio IC50 [1]: > 192; IC50 [2]: < 0.01 µM; IC50 [3]: 1.92 µM
CS(=O)(=O)c1ccc(-c2cc(C(F)(F)F)nc(OC3CCC3)n2)cc1	–	–	–	Ratio IC50 [1]: > 1900; IC50 [2]: < 0.01 µM; IC50 [3]: 19 µM
Cc1ccc(Oc2nc(-c3ccc(S(C)(=O)=O)cc3)cc(C(F)(F)F)n2)cc1	–	–	–	Ratio IC50 [1]: > 375
Cc1ccc(N(C)c2nc(-c3ccc(S(C)(=O)=O)cc3)cc(C(F)(F)F)n2)cc1	> 74.2 µM	0.003 µM	> 24700	–

More lines, main results first:

IC50 [4]	IC50 [5]	Compound	Ratio IC50 (COS)	further results
> 91.6 µM	–	CS(=O)(=O)c1ccc(-c2cc(C(F)(F)F)nc(NC3CCOCC3)n2)cc1	> 5090	–
> 100 µM	> 10 µM	CS(=O)(=O)c1ccc(-c2cc(C(F)(F)F)nc(NC3CCNCC3)n2)cc1	inactive	–
> 100 µM	0.005 µM	CCCNc1nc(-c2ccc(S(C)(=O)=O)cc2)cc(C(F)(F)F)n1	> 2000	–
0.7 µM	< 0.0014 µM	CCCCNc1nc(-c2ccc(S(N)(=O)=O)cc2)cc(C(F)(F)F)n1	> 500	–
> 100 µM	0.011 µM	Cc1ccc(Nc2nc(-c3ccc(S(C)(=O)=O)cc3)cc(C(F)(F)F)n2)cc1	> 9090	–
> 100 µM	0.0056 µM	CS(=O)(=O)c1ccc(-c2cc(C(F)(F)F)nc(Nc3ccccc3)n2)cc1	> 17900	–
> 100 µM	–	CS(=O)(=O)c1ccc(-c2cc(C(F)(F)F)nc(NCc3ccccc3)n2)cc1	> 400000	IC50 [6]: 0.008 µM; IC50 [7]: 39.3 µM; Ratio IC50 (Homo sapiens): 4910
> 100 µM	0.272 µM	CS(=O)(=O)c1ccc(-c2cc(C(F)(F)F)nc(N)n2)cc1	> 368	–
> 65.8 µM	0.0072 µM	CS(=O)(=O)c1ccc(-c2cc(C(F)(F)F)nc(Nc3ccc(F)cc3)n2)cc1	> 9140	–
0.167 µM	0.0024 µM	NS(=O)(=O)c1ccc(-c2cc(C(F)(F)F)nc(NC3CCCCC3)n2)cc1	69.5	–
> 100 µM	< 0.01 µM	Cc1ccc(CNc2nc(-c3ccc(S(C)(=O)=O)cc3)cc(C(F)(F)F)n2)cc1	> 10000	–
> 66.2 µM	0.002 µM	CC(C)CNc1nc(-c2ccc(S(C)(=O)=O)cc2)cc(C(F)(F)F)n1	> 33100	IC50 [6]: 0.206 µM; bioavailability [16]: 107%; half-life [9]: 9 h; Ratio IC50 [1]: > 8330; Vd [10]: 6 L/kg; clearance [14]: 0.6 L/h/kg; IC50 [7]: 62 µM; IC50 [2]: 0.012 µM; ED50 (Rattus norvegicus [15]): 0.5 mg/kg; Ratio IC50 (Homo sapiens): 301; IC50 [3]: > 100 µM
